# From patent US20100197714A1, “SPIRO-PYRANO-PYRAZOLE DERIVATIVES” (priority 2007, published 2010)
# Key:
# σ1-receptor [1] = molecular target: T1, σ1-receptor (Cavia porcellus, UniProt Q60492); assay: Sigma 1 (Version B) radioligand binding, [3H]-(+)-pentazocine, guinea pig brain preparation; design: the σ1-receptor preparation was prepared from guinea pig brain; from tissue; host or cells: guinea pig brain membrane homogenate
# Description: In brief the σ1-receptor preparation was prepared from guinea pig brain. The brains were homogenized in 5 to 6 times of volume sucrose solution (0.32M) and homogenized. The homogenate was centrifuged at 2900 rpm, 4° C., 10 min). the supernatant was centrifuged again (23500×g, 4° C., 20 min). The pellet was resuspended in Tris-buffer, incubated for 30 min at room temperature and centrifuged f (23500×g, 4° C., 20 min). The pellet was resuspended in cold TRIS-buffer and homogenized. Then the protein content was measured (approx. 1.5 mg/mL) and the homogenate frozen at −80° C. for later use.
# The radioligand used was […]-(+)-Pentazocin in TRIS-buffer. In a volume of 200 μL 50 μL TRIS-buffer, 50 μL compound solution of varying concentration, 50 μL radioligand-solution (8 nM; resulting in 2 nM in the assay) and finally 50 μL of receptor preparation (approx. 1.5 mg/mL) were given into a well of a microplate equipped with a filter. The plate was closed and stirred for 2.5 h at 37° C. and 500 rpm. Following that the solvents were removed by a harvester through the filter. After rinsing with H2O the filter was measured in a scintillation counter ([^3H]-protocol).
# σ1-receptor [2] = molecular target: T1, σ1-receptor; assay: Sigma-1 (Version A) radioligand binding, [3H](+)-pentazocine, guinea pig brain membranes
# Description: Brain membrane preparation and binding assays for the σ1-receptor were performed as described (DeHaven-Hudkins et al., 1992) with some modifications. In brief, guinea pig brains were homogenized in 10 vols. […] The homogenate was centrifuged at 1000 g for 10 min at 4° C. and the supernatants collected and centrifuged again at 48000 g for 15 min at 4° C.
# Each assay tube contained 10 μL of [^3H](+)-pentazocine (final concentration of 0.5 nM), 900 μL of the tissue suspension to a final assay volume of 1 mL and a final tissue concentration of approximately 30 mg tissue net weight/mL. […] All tubes were incubated at 37° C. for 150 min before termination of the reaction by rapid filtration over Schleicher & Schuell GF 3362 glass fibre filters [previously soaked in a solution of 0.5% polyethylenimine for at least 1 h]. […] Following addition of scintillation cocktail, the samples were allowed to equilibrate overnight. The amount of bound radioactivity was determined by liquid scintillation spectrometry using a Wallac Winspectral 1414 liquid scintillation counter.
# σ2-receptor = molecular target: T2, σ2-receptor (Rattus norvegicus, UniProt Q5U3Y7); assay: Sigma 2 (Version B) radioligand binding, [3H]-ditolylguanidine, rat liver preparation, σ1 sites masked with (+)-pentazocine; conditions: for Ki: [3H]-ditolylguanidine 3 nM
# T2 construct: the σ2-Receptorpreparation was prepared from rat liver; from tissue; host or cells: rat liver membrane homogenate
# T2 sequence (Q5U3Y7 1-176): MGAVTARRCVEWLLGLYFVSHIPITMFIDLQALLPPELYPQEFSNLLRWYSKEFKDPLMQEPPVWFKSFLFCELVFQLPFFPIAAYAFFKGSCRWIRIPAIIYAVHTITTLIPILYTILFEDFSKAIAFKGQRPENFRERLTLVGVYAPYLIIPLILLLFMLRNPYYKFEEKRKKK
# Description: In brief the σ2-Receptorpreparation was prepared from rat liver. The livers were homogenized in 5 to 6 times of volume sucrose solution (0.32M) and homogenized. The homogenate was centrifuged at 2900 rpm, 4° C., 10 min). the supernatant was centrifuged again (31000×g, 4° C., 20 min). The pellet was resuspended in TRIS-buffer, incubated for 30 min at room temperature while stirring and centrifuged f (31000×g, 4° C., 20 min). The pellet was resuspended in cold TRIS-buffer pH 8 and homogenized. Then the protein content was measured (approx. 2 mg/mL) and the homogenate frozen at −80° C. for later use.
# The radioligand used was [^3H]-Ditolylguanidin in TRIS-buffer pH 8. The σ1-receptor binding sites were masked through (+)-Pentazocin-solution in TRIS-Puffer pH 8.
# In a volume of 200 μL 50 μL compound solution of varying concentration, 50 μL (+)-Pentazocin-solution (2 μM; resulting in 500 nM in the assay), 50 μL radioligand-solution (12 nM; resulting in 3 nM in the assay) and finally 50 μL of receptor preparation (approx. 2 mg/mL) were given into a well of a microplate equipped with a filter. The plate was closed and stirred for 2 h at room temperature and 500 rpm. Following that the solvents were removed by a harvester through the filter. After rinsing with H2O the filter was measured in a scintillation counter ([^3H]-protocol).
# T1 sequence (Q60492 whole entry): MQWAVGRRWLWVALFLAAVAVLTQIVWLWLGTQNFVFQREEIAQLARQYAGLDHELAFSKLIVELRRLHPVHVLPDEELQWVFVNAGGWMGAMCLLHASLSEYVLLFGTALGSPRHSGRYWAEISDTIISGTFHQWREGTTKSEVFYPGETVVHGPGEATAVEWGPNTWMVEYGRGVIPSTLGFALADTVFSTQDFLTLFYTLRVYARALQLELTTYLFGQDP
SMILES,Ki (σ1-receptor [1]),Ki (σ1-receptor [2]),Ki (σ2-receptor),inhibition at 1 µM (σ2-receptor; compound at 1 μM)
"COC1Cc2c(cnn2-c2ccccc2)C2(CCN(CCC(C)C)CC2)O1 (stereo not drawn) [Example 12, 1-Isopentyl-6′-methoxy-1′-phenyl-6′,7′-dihydro-1′H-spiro[piperidin-4,4′-pyrano[4,3-c]pyrazole]]",0.97 nM,2.5 nM,316 nM,–
"COC1Cc2c(cnn2-c2ccccc2)C2(CCN(CC=C(C)C)CC2)O1 (stereo not drawn) [Example 13, 6′-Methoxy-1-(3-methylbut-2-en-1-yl)-1′-phenyl-6′,7′-dihydro-1′H-spiro[piperidin-4,4′ pyrano[4,3-c]pyrazole]]",1.64 nM,7.3 nM,–,3%
"CCCCCCCCN1CCC2(CC1)OC(OC)Cc1c2cnn1-c1ccccc1 (stereo not drawn) [Example 14, 6′-Methoxy-1-octyl-1′-phenyl-6′,7′-dihydro-1′H-spiro[piperidin-4,4′-pyrano[4,3-c]pyrazole]]",2.86 nM,41 nM,209 nM,–
"COC1Cc2c(cnn2-c2ccccc2)C2(CCN(CC3CCCCC3)CC2)O1 (stereo not drawn) [Example 15, 1-(Cyclohexan-1-ylmethyl)-6′-methoxy-1′-phenyl-6′,7′-dihydro-1′H-spiro[piperidin-4,4′-pyrano[4,3-c]pyrazole]]",0.55 nM,7.9 nM,109 nM,–
"COC1Cc2c(cnn2-c2ccccc2)C2(CCN(CCCCc3ccccc3)CC2)O1 (stereo not drawn) [Example 18, 6′-Methoxy-1′-phenyl-1-(4-phenylbutyl)-6′,7′-dihydro-1′H-spiro[piperidin-4,4′-pyrano[4,3-c]pyrazole]]",3.22 nM,15.7 nM,428 nM,–
"COC1Cc2c(cnn2-c2ccccc2)C2(CCN(Cc3ccco3)CC2)O1 (stereo not drawn) [Example 19, 1-(Furan-2-ylmethyl)-6′-methoxy-1′-phenyl-6′,7′-dihydro-1′H-spiro[piperidin-4,4′-pyrano[4,3-c]pyrazole]]",2.21 nM,3.8 nM,5220 nM,–
"COC1Cc2c(cnn2-c2ccccc2)C2(CCN(Cc3ccc(F)cc3)CC2)O1 (stereo not drawn) [Example 21, 1-(4-Fluorbenzyl)-6′-methoxy-1′-phenyl-6′,7′-dihydro-1′H-spiro[piperidin-4,4′-pyrano[4,3-c]pyrazole]]",0.94 nM,7.7 nM,687 nM,–
